Test [1] addresses T1, CBL-B (residues 36-427) (Homo sapiens, UniProt Q13191).
T1 construct: Purified CBL-B (residues 36-427) and C-CBL (residues 46-435) proteins from baculovirus-infected insect cells; made in house; host or cells: baculovirus-infected insect cells
The experiment in a line: Ligand Displacement Assay (LDA), HTRF competitive binding against BODIPY-labeled fluorescent tracer, CBL-B. Conditions: geometric mean of the number of tests, read-out: CBL-B Ki (nM) GMean. In a few lines: (§1)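 Insect-cell (baculovirus) protein, N-term AviTag biotinylated via BirA, captured by SA-Tb; BODIPY tracer, KD measured per protein. 3-fold serial dilutions, duplicate, […], 2% DMSO final. Ki (nM) = geomean of runs.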

In test [2] the target is T2, CBL-B (Homo sapiens, UniProt Q13191).
T2 construct: endogenous in cells; host or cells: Jurkat HiBit-IL2 reporter cells, C-CBL knocked out by CRISPR
Put plainly: Jurkat HiBit-IL2 assay (c-CBL KO), reporter cell line expressing CBL-B only. Type of test: cell-based. Conditions: geometric mean, read-out: C-CBL KO EC50 (nM) GMean. Summed up: (§2)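 IL-2 secretion was measured by HiBiT luminescence after 1 h compound exposure (0.1% DMSO) and 4 h TCR/CD28 stimulation (final anti-CD3 1 μg/ml, anti-CD28 2 μg/ml, 37 °C) of Jurkat reporters lacking c-CBL or CBL-B. EC50 came from fold-of-effect versus stimulated-only cells, as geometric means across tests.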
A general note: HiBiT is a short tag that completes a luciferase, so light tracks the accessible tagged protein.

The target in test [3] is T3, C-CBL (Homo sapiens, UniProt P22681).
T3 construct: endogenous in cells; host or cells: Jurkat HiBit-IL2 reporter cells, CBL-B knocked out by CRISPR
Put plainly: Jurkat HiBit-IL2 assay (CBL-B KO), reporter cell line expressing C-CBL only. It counts as cell-based. Conditions: geometric mean, read-out: CBL-B KO EC50 (nM) GMean. In a few lines:
as §2

For test [4], the target named is T4, C-CBL (residues 46-435) (Homo sapiens, UniProt P22681).
T4 construct: Purified CBL-B (residues 36-427) and C-CBL (residues 46-435) proteins from baculovirus-infected insect cells; made in house; host or cells: baculovirus-infected insect cells
T4 sequence (P22681 46-435): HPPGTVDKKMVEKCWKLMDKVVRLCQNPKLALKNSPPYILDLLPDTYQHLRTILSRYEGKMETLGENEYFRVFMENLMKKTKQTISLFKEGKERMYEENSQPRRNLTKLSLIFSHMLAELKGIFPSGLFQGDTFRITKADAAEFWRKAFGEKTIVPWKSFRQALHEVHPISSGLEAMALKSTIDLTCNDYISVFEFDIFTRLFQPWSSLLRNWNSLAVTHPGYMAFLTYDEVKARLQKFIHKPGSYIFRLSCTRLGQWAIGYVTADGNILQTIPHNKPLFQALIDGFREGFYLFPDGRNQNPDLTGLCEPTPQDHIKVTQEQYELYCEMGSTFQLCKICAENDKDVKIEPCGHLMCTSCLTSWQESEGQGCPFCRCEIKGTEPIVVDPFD
The experiment in a line: Ligand Displacement Assay (LDA), HTRF competitive binding against BODIPY-labeled fluorescent tracer, C-CBL. Particulars: geometric mean of the number of tests, read-out: C-CBL Ki (nM) GMean. In a few lines: as §1
Background: TR-FRET usually uses a lanthanide donor and a delayed reading to cut background.

Setting [5] is: C-CBL KO (expressing CBL-B only), Table 16b (further repetition).
Where [6] appears, read: CBL-B KO (expressing C-CBL only), Table 16b (further repetition).
Where [7] appears, read: c-CBL KO (CBL-B only), anti-CD3/anti-CD28 stimulation 4 hours, Table 16a.
Setting [8] is: CBL-B KO (C-CBL only), anti-CD3/anti-CD28 stimulation 4 hours, Table 16a.

Where two headings read alike, the source gives them in different places.

With `C[C@@H](N[C@@H]1COC[C@@H]1O)c1nc(C(F)(F)F)cc2c(-c3cccc([C@H](c4nncn4C)C4CCC4)c3)n[nH]c12` (single isomer, unassigned) [Example D56], the Ki (commonly the dissociation constant of the complex between target and ligand, obtained from inhibition or displacement) was found to be 6.2 nM in test [1] and 62.3 nM in test [4]. Further, the EC50 – broadly, the concentration at which the effect is half-maximal – in test [2] (setting [5]) turned out to be 84 nM; in test [3] (setting [6]), 365 nM.
Consider `CC(O)CNC(C)c1nc(C2CC2)cc2c(-c3cccc(C(c4nncn4C)C4CCC4)c3)n[nH]c12` (single isomer, unassigned) [Example H1], for which the Ki was found to be 4.3 nM in test [1] and 48.4 nM in test [4]. For the same molecule, the EC50 in test [2] (setting [5]) was 103 nM; in test [2] (setting [7]) it was 44 nM; in test [3] (setting [8]), 559 nM; in test [3] (setting [6]) it was 485 nM.
With `CC(NC[C@H](C)O)c1nccc2c(-c3cccc([C@H](c4nncn4C)C4CCC4)c3)n[nH]c12` (single isomer, unassigned) [Example C124], the Ki amounted to 7.9 nM in test [1] and 109 nM in test [4]. Also, the EC50 in test [2] (setting [5]) stood at 348 nM; in test [3] (setting [6]), 3280 nM.
For `C[C@@H](NC(C)(C)CO)c1nc(C(F)(F)F)cc2c(-c3cccc([C@H](c4nncn4C)C4CCC4)c3)n[nH]c12` (single isomer, unassigned) [Example D55] the same measures were 4.8 nM, 76.5 nM, 80 nM and 642 nM.
With `CC(NC(=O)[C@H](C)O)c1nc(C(F)(F)F)cc2c(-c3cccc([C@H](c4nncn4C)C4CCC4)c3)n[nH]c12` (single isomer, unassigned) [Example I4], the Ki in test [1] is 3.4 nM; in test [4], 24.3 nM. Also, the 50% effective concentration (EC50) in test [2] (setting [5]) came to 108 nM; in test [2] (setting [7]), 48 nM; in test [3] (setting [8]), 852 nM; in test [3] (setting [6]), 491 nM.
Consider `CCC(CC)(CO)N[C@H](C)c1nc(C(F)(F)F)cc2c(-c3cccc([C@H](c4nncn4C)C4CCC4)c3)n[nH]c12` (single isomer, unassigned) [Example D75], for which the results for the Ki in test [1] and in test [4] were 11 nM and 128 nM, respectively. The figures for the half-maximal effective concentration (EC50) in test [2] (setting [5]) and in test [3] (setting [6]) were 195 nM and 1030 nM, respectively.
For `CCC(CC)(CO)N[C@@H](C)c1nc(C(F)(F)F)cc2c(-c3cccc([C@H](c4nncn4C)C4CCC4)c3)n[nH]c12` (single isomer, unassigned) [Example D74] the same measures were 31.5 nM, 366 nM, 639 nM and 3400 nM.
For `C[C@@H](c1nc(C(F)(F)F)cc2c(-c3cccc([C@H](c4nncn4C)C4CCC4)c3)n[nH]c12)N1CC(C)(O)C1` (single isomer, unassigned) [Example D66] the same measures were 2.6 nM, 22.1 nM, 72 nM and 409 nM.
For `C[C@@H](NC1(CO)CCC1)c1nc(C(F)(F)F)cc2c(-c3cccc([C@H](c4nncn4C)C4CCC4)c3)n[nH]c12` (single isomer, unassigned) [Example D73] the same measures were 12.1 nM, 157 nM, 118 nM and 639 nM.
On to `CC(N[C@H]1CCC[C@@H]1O)c1nc(C(F)(F)F)cc2c(-c3cccc([C@H](c4nncn4C)C4CCCCC4)c3)n[nH]c12` (single isomer, unassigned) [Example C101], for which the Ki stood at 2.5 nM in test [1] and 21 nM in test [4]. Moreover, the EC50 in test [2] (setting [5]) worked out at 58 nM; in test [3] (setting [6]) it was 909 nM.
In the case of `C[C@H](N[C@@H]1COC[C@@H]1O)c1nc(C(F)(F)F)cc2c(-c3cccc([C@H](c4nncn4C)C4CCC4)c3)n[nH]c12` (single isomer, unassigned) [Example D20], the Ki came out at 1.7 nM in test [1] and 2.3 nM in test [4]. Besides, the EC50 in test [2] (setting [5]) amounted to 11 nM; in test [2] (setting [7]) it was 4 nM; in test [3] (setting [8]), 30 nM; in test [3] (setting [6]), 31 nM.
As to `CC(N[C@H](C)[C@H](C)O)c1nc(C(F)(F)F)cc2c(-c3cccc([C@H](c4nncn4C)C4CCC4)c3)n[nH]c12` (single isomer, unassigned) [Example C48], the Ki in test [1] amounted to 2.5 nM; in test [4], 33 nM. The EC50 amounted to 67 nM in test [2] (setting [5]), 20 nM in test [2] (setting [7]), 493 nM in test [3] (setting [8]) and 466 nM in test [3] (setting [6]).
`C[C@H](CO)N[C@H](C)c1nc(C(F)(F)F)cc2c(-c3cccc([C@H](c4nncn4C)C4CCC4)c3)n[nH]c12` (single isomer, unassigned) [Example C44]: the Ki was 2.2 nM in test [1] and 25 nM in test [4]. The EC50 was found to be 60 nM in test [2] (setting [5]), 21 nM in test [2] (setting [7]), 253 nM in test [3] (setting [8]) and 356 nM in test [3] (setting [6]).
Take `C[C@H](c1nc(C(F)(F)F)cc2c(-c3cccc([C@H](c4nncn4C)C4CCC4)c3)n[nH]c12)N1CC(C)(O)C1` (single isomer, unassigned) [Example D67]: the Ki is 10.9 nM in test [1] and 78.5 nM in test [4]. Moreover, the 50% effective concentration (EC50) in test [2] (setting [5]) amounted to 321 nM; in test [3] (setting [6]), 1520 nM.
